Laboratory results: patent US9695119B2, “Methionine analogs and methods of using same” (Bioxiness Pharmaceuticals, Inc., priority 2008, dated 2017)
Like-named read-outs stand apart in the source and are kept apart here.

How the values were obtained:
[1] = target: E. coli Methionyl-tRNA synthetase (Escherichia coli, UniProt P00959); experiment: Enzymatic aminoacylation tRNA charging assay; assay type: biochemical
Protocol: The assay system is as described by Hartman M et al, 2006 Enzymatic aminoacylation of tRNA with unnatural amino acids. PNAS. […] Each assay contains 40 mM Hepes (pH 7.4), 17 mM MgCl2, 45 mM KCl, 3.4 mM 2-mercaptoethanol, 6 mM ATP, 6% glycerol, 350 μM E. coli tRNA (Roche), 0.09 mg/mL BSA, 910 nM Methionyl-tRNA synthetase (MetRS) and amino acids in 100-1,000 μM range. […] Samples are transferred to ice bath to stop the reactions and then small aliquot (2 μL) samples are precipitated using 500 μL of 5% cold TCA onto Whatmann filter papers and vacuumed and then dried under a heat lamp. Radioactivity of each sample is measured as counts per minute (CPM), as compared to controls (without the analog). Results for the S enantiomer of I-A ((S)-2-amino-4-(methylthio)butane-1-sulfonic acid hydrochloride) are shown below in Table 11.

[2] = test system: E. coli (DH5-α); experiment: Growth inhibition of E. coli by methionine analogs, 96-well plate, OD 550 nm over time; assay type: cell-based; settings: E. coli, 12.5 mM, OD 550 nm
Text: Comparative Minimum Bactericidal Concentration (MBC) results provide estimates of the susceptibility of various test articles against test organisms. A modification of the […] (NCCL) Standardized Protocol “Methods for dilution antimicrobial susceptibility tests for bacteria that grow aerobically” was used in these studies. Sterile Phosphate Buffer Saline (PBS) at pH 7.0 (vehicle) was used as the diluent. Use of such diluent allows for the determination of the intrinsic activity of our test articles in the absence of any interfering molecules. Specifically, each test article was diluted using 2-fold serial dilution in 96-well plate to give a range of concentrations from approximately 50 mM to 0.05 mM in a final volume of 0.1 mL. Each dilution was inoculated with 5×10^5 CFU/mL test bacteria. The initial optical density as absorbance of each well was read at OD 550 nm using ThermoMax plate reader. […] At various time intervals post-treatment, OD reading at 550 nm was recorded at various time intervals. FIG. 1A and Table 1 show time dependent growth inhibition capability of analogs on E. coli at 12.5 mM. For FIGS. 1A and 1B, the 96-well plate format was used to culture E. coli (DH5-α) cells in M9 minimal media supplemented with glucose (M9) or same media supplemented with a range of concentrations of various analogs. Experiments were carried out in duplicate.

[3] = test system: L929 cells; settings: mouse, 60 min
Protocol: Cytotoxicity is assessed by a colorimetric assay system (Sagripanti J-L, Bonifacino A. Cytotoxicity of Liquid Disinfectants. Surgical Infections, 2000; 1(1): 3-14, the content of which is hereby incorporated by reference, particularly with respect to the experimental methods described therein), using 3′-(phenylamino-carbonyl)-3,4-tetrazo-lium-bis(4-methoxy-6-nitro) benzene sulfonic acid hydrate (XTT), ProCheck™ cell viability assay (Evaluation of a soluble tetrazolium/formazan assay for cell growth and drug sensitivity in culture using human and other tumor cell lines described by Scudiero D A, Shoemaker R A H, Paul K D, Monks A, Tierney S, Nofziger T H, Currens M J, Seniff D, Boyd M R. Cancer Res. 1988 Sep. 1; 48(17):4827-33, the content of which is hereby incorporated by reference, particularly with respect to the experimental methods described therein). Similar approaches for determining the cell viability are used by other investigators. Three cell types are used: […] (L929), primary human skin fibroblast and primary human keratinocyte cells cultured in Dulbecco Modified Eagle's Medium and Keratinocyte defined medium with corresponding growth factors plus antibiotics. Cells are trypsinized and counted under the microscope and seeded at 1000-to-2000 cells per well of a flat-bottom 96-well plate. Cells are allowed to grow overnight at 37° C. Tissue culture media is removed the following day and cells are rinsed with fresh media 1× and then left in 50 μL of tissue culture media. Test articles are prepared as 2-fold dilutions and 200 μL is added into each set of 4-wells (total volume per well is 250 μL). Cells are exposed to test articles for 60 min at room temperature. Immediately after the exposed time, test article from each well is removed and cells are fed with 250 μL of fresh media. Plates are incubated at 37° C. for 18-20 hr. The following day media is removed again and replaced with 100 μL/well of fresh media containing 10/100 μL XTT-reagent. Cells are incubated under growth conditions (5% CO2 at 37° C. humidified incubator), protected from light, until color development is achieved. Absorbance is read at 450 nm with reference wavelength at 750 nm using Molecular Device ThermoMax Plate reader, blanking the plate on the medium-only assay blank wells. Untreated cells receiving XTT reagents-only serve as positive cell proliferation control.
(§1) Results are expressed as percentage of cells surviving the treatment as compared to PBS.

[4] = test system: CV-1 (African Green Monkey Kidney Cells) cells; settings: 60 min, pH 7
Protocol: Preliminary studies of cytotoxicity were performed in a mammalian cell viability assay.
CV-1 cells were propagated in DMEM plus 8% FBS according to supplier's recommendations. CV-1 cells were seeded at 1.5×10^4 cells per well in 96-well plates and incubated overnight at 37° C. On the day of testing, growth medium was aspirated from each well, and 20 μl fresh medium was added per well. Test articles were diluted from 50 mM to 0.05 mM by 2-fold serial dilution using PBS at pH 7.0 for each test article. After which 80 μl of each dilution was added to each well for a total volume of 100 μl per well. Following 60 minutes exposure at 37° C., test articles were aspirated and replaced with fresh 100 μl tissue culture media and incubated for 24 hours at 37° C. Next day cell culture media was removed and cell viability was determined by addition of WST-8 (Dojindo, Japan) reagent and the absorption at 450 nm read spectrophotometrically. Orange-red formazan, which is produced by live cells, is a direct measure of cell viability in this assay.
as §1

E. coli Methionyl-tRNA synthetase, sequence (P00959 whole entry): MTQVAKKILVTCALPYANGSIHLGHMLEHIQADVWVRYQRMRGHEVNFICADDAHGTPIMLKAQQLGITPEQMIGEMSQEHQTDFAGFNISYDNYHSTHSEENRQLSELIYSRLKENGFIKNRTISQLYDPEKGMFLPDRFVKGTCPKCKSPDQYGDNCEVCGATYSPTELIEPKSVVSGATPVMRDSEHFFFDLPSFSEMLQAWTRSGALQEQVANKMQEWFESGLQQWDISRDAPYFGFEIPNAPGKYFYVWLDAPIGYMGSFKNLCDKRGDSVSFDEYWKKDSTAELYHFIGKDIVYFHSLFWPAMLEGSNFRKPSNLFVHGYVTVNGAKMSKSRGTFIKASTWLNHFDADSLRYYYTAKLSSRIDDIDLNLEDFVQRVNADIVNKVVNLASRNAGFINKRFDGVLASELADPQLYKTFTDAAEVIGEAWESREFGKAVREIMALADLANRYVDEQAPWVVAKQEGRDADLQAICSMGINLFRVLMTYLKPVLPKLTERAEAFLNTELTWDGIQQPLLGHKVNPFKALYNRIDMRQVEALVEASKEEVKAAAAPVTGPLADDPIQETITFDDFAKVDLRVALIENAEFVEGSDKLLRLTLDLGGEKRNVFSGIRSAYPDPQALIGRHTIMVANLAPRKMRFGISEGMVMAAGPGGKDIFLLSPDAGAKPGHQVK

Row | SMILES | Absorbance ([2]; well 12, time 0 hrs) | Absorbance ([2]; well 12, time 1 hrs) | Absorbance ([2]; well 12, time 2 hrs) | Absorbance ([2]; well 12, time 3 hrs) | Absorbance ([2]; well 12, time 3.75 hrs) | Absorbance ([2]; well 12, time 5 hrs) | Absorbance ([2]; well 12, time 6.5 hrs) | Absorbance ([2]; well 12, time 7.25 hrs) | Absorbance ([2]; well 12, time 23 hrs) | Percentage of Surviving L929 cells relative to control ([3]; 0.1 mM) | Percentage of Surviving L929 cells relative to control ([3]; 0.2 mM) | Percentage of Surviving L929 cells relative to control ([3]; 0.39 mM) | Percentage of Surviving L929 cells relative to control ([3]; 0.78 mM) | Percentage of Surviving L929 cells relative to control ([3]; 1.56 mM) | Percentage of Surviving L929 cells relative to control ([3]; 3.13 mM) | Percentage of Surviving L929 cells relative to control ([3]; 6.25 mM) | Percentage of Surviving L929 cells relative to control ([3]; 12.5 mM) | Percentage of Surviving L929 cells relative to control ([3]; 25 mM) | Percentage of Surviving L929 cells relative to control ([3]; 50 mM) | Percentage of Surviving CV-1 cells relative to PBS ([4]; 0.1 mM) | further results
1 | CSCC[C@H](N)CS(=O)(=O)O.Cl [I-A, (S)-2-amino-4-(methylthio)butane-1-sulfonic acid hydrochloride] |  |  |  |  |  |  |  |  |  |  |  |  |  |  |  |  |  |  |  |  | Radioactivity, Methionyl-tRNA synthetase tRNA charging ([1]; Experiment #1, I-A 0.04 mM, 1 Minute): 2,476 Counts Per Minute; Radioactivity, Methionyl-tRNA synthetase tRNA charging ([1]; Experiment #1, I-A 0.04 mM, 10 Minutes): 3,466 Counts Per Minute; Radioactivity, Methionyl-tRNA synthetase tRNA charging ([1]; Experiment #1, I-A 0.20 mM, 1 Minute): 2,333 Counts Per Minute; Radioactivity, Methionyl-tRNA synthetase tRNA charging ([1]; Experiment #1, I-A 0.20 mM, 10 Minutes): 3,147 Counts Per Minute; Radioactivity, Methionyl-tRNA synthetase tRNA charging ([1]; Experiment #1, I-A 1.00 mM, 1 Minute): 2,372 Counts Per Minute; Radioactivity, Methionyl-tRNA synthetase tRNA charging ([1]; Experiment #1, I-A 1.00 mM, 10 Minutes): 3,218 Counts Per Minute; Radioactivity, Methionyl-tRNA synthetase tRNA charging ([1]; Experiment #1, I-A 5.00 mM, 1 Minute): 2,007 Counts Per Minute; Radioactivity, Methionyl-tRNA synthetase tRNA charging ([1]; Experiment #1, I-A 5.00 mM, 10 Minutes): 2,891 Counts Per Minute; Radioactivity, Methionyl-tRNA synthetase tRNA charging ([1]; Experiment #2, I-A 0.25 mM, 10 Minutes): 1,701 Counts Per Minute; Radioactivity, Methionyl-tRNA synthetase tRNA charging ([1]; Experiment #2, I-A 1.25 mM, 10 Minutes): 1,907 Counts Per Minute; Radioactivity, Methionyl-tRNA synthetase tRNA charging ([1]; Experiment #2, I-A 5.00 mM, 10 Minutes): 1,575 Counts Per Minute; Radioactivity, Methionyl-tRNA synthetase tRNA charging ([1]; Experiment #2, I-A 12.5 mM, 10 Minutes): 1,672 Counts Per Minute
2 | CSCC[C@H](N)C(=O)NO.Cl [I-AA, (S)-2-amino-N-hydroxy-4-(methylthio)butanamide hydrochloride] | 0.084 | 0.113 | 0.130 | 0.133 | 0.109 | 0.118 | 0.110 | 0.100 | 0.130 | 100% | 94% | 89% | 87% | 87% | 87% | 85% | 86% | 85% | 82% | 97% | Percentage of Surviving CV-1 cells relative to PBS ([4]; 0.2 mM): 95%; Percentage of Surviving CV-1 cells relative to PBS ([4]; 0.39 mM): 96%; Percentage of Surviving CV-1 cells relative to PBS ([4]; 0.78 mM): 96%; Percentage of Surviving CV-1 cells relative to PBS ([4]; 1.56 mM): 100%; Percentage of Surviving CV-1 cells relative to PBS ([4]; 3.13 mM): 100%; Percentage of Surviving CV-1 cells relative to PBS ([4]; 6.25 mM): 99%; Percentage of Surviving CV-1 cells relative to PBS ([4]; 12.5 mM): 101%; Percentage of Surviving CV-1 cells relative to PBS ([4]; 25 mM): 99%; Percentage of Surviving CV-1 cells relative to PBS ([4]; 50 mM): 72%
3 | CSCC[C@H](N)C(=O)O [Methionine] | 0.085 | 0.123 | 0.164 | 0.168 | 0.151 | 0.191 | 0.202 | 0.202 | 0.427 | 104% | 101% | 100% | 95% | 87% | 86% | 84% | 85% | 85% | 81% | 98% | Percentage of Surviving CV-1 cells relative to PBS ([4]; 0.2 mM): 96%; Percentage of Surviving CV-1 cells relative to PBS ([4]; 0.39 mM): 95%; Percentage of Surviving CV-1 cells relative to PBS ([4]; 0.78 mM): 96%; Percentage of Surviving CV-1 cells relative to PBS ([4]; 1.56 mM): 99%; Percentage of Surviving CV-1 cells relative to PBS ([4]; 3.13 mM): 100%; Percentage of Surviving CV-1 cells relative to PBS ([4]; 6.25 mM): 100%; Percentage of Surviving CV-1 cells relative to PBS ([4]; 12.5 mM): 99%; Percentage of Surviving CV-1 cells relative to PBS ([4]; 25 mM): 99%; Percentage of Surviving CV-1 cells relative to PBS ([4]; 50 mM): 66%
